Measured values as given in US9387197B2, “Methods for treating conditions such as dystonia and post-stroke spasticity with clonidine” (Warsaw Orthopedic, Inc., priority 2008, dated 2016).

System: Rat Chronic Constriction Injury Model
Conditions: FIG. 4; days 8-64
Procedure: A 2-month chronic constriction injury (CCI) model of neuropathic pain was used to evaluate different formulations of clonidine encapsulated in bioerodible polymers compared to clonidine given subcutaneously (SC). Different formulations as provided in Table 5 below were evaluated for reducing pain-associated behaviors: Thermal paw withdrawal latency was evaluated at baseline, 7, 14, 21, 28, 35, 42, 49, 56 and 64 days post-operatively, while mechanical threshold was evaluated at 8, 15, 22, 29, 36, 43, 50, 57 and 64 days post-operatively.
The inventors evaluated the efficacy of a five month Clonidine/Polymer Drug Depot in the Rat Chronic Constriction Injury Model. The animal model was the Bennett Model (Wistar rat). The purpose: To determine whether a five month polymer clonidine-eluting depot can improve pain associated behavioral responses in a rat model of neuropathic pain.
Experimental Design: Four loose chromic gut ligatures, 1 mm apart, were tied around the common sciatic nerve at mid-thigh. Each animal received treatment of a test or control article according to the dosing described in Table 5.
The inventors have conducted the present study for a period of 64 days and have employed the following two tests: (1) the Hargreaves test; and (2) the von Frey test. […]

Clc1cccc(Cl)c1N=C1NCCN1 [clonidine, 2,6-dichloro-N-2-imidazolidinyldenebenzenamine]
pain behavioral response, mechanical threshold (mechanical allodynia), compared to unloaded polymer depots: reduced the behavioral response
